Source: the NIST ThermoML archive (doi:10.1021/je500424b)
Numbers after ± are expanded uncertainties.

Details: Gas, Cylindrical cavity resonance method

C=CC [propene]
Details | speed of sound [m/s]
260 K, 164.45 kPa | 238.03 ± 0.071
260 K, 185.32 kPa | 237.15 ± 0.071
260 K, 206.56 kPa | 236.23 ± 0.071
260 K, 227.97 kPa | 235.29 ± 0.071
260 K, 248.96 kPa | 234.36 ± 0.071
260 K, 275.35 kPa | 233.17 ± 0.071
260 K, 293.11 kPa | 232.48 ± 0.07
270 K, 144.04 kPa | 243.6 ± 0.072
270 K, 173.01 kPa | 242.51 ± 0.071
270 K, 206.19 kPa | 241.23 ± 0.071
270 K, 236.28 kPa | 240.06 ± 0.071
270 K, 262.89 kPa | 239 ± 0.071
270 K, 263.03 kPa | 239 ± 0.071
270 K, 302.89 kPa | 237.39 ± 0.071
270 K, 333.53 kPa | 236.13 ± 0.071
270 K, 361.31 kPa | 234.96 ± 0.071
270 K, 389.41 kPa | 233.76 ± 0.071
280 K, 149.29 kPa | 247.97 ± 0.072
280 K, 188.35 kPa | 246.64 ± 0.072
280 K, 226.29 kPa | 245.31 ± 0.072
280 K, 267.79 kPa | 243.84 ± 0.071
280 K, 308.73 kPa | 242.37 ± 0.071
280 K, 354.13 kPa | 240.69 ± 0.071
280 K, 397.57 kPa | 239.06 ± 0.071
280 K, 438.3 kPa | 237.49 ± 0.071
280 K, 438.33 kPa | 237.49 ± 0.071
280 K, 478.89 kPa | 235.89 ± 0.071
280 K, 519.72 kPa | 234.24 ± 0.071
280 K, 556.25 kPa | 232.73 ± 0.071
290 K, 141.01 kPa | 252.63 ± 0.072
290 K, 199.13 kPa | 250.82 ± 0.072
290 K, 257.68 kPa | 248.96 ± 0.072
290 K, 313.39 kPa | 247.15 ± 0.072
290 K, 372.8 kPa | 245.18 ± 0.071
290 K, 434.96 kPa | 243.06 ± 0.071
290 K, 495.22 kPa | 240.95 ± 0.071
290 K, 553.22 kPa | 238.87 ± 0.071
290 K, 616.94 kPa | 236.51 ± 0.071
290 K, 672.07 kPa | 234.4 ± 0.071
290 K, 677.98 kPa | 234.17 ± 0.071
290 K, 695.54 kPa | 233.48 ± 0.07
300 K, 134.71 kPa | 257.09 ± 0.073
300 K, 182.3 kPa | 255.75 ± 0.073
300 K, 260.81 kPa | 253.49 ± 0.072
300 K, 344.4 kPa | 251.01 ± 0.072
300 K, 425.25 kPa | 248.56 ± 0.072
300 K, 505.72 kPa | 246.04 ± 0.071
300 K, 582.66 kPa | 243.56 ± 0.071
300 K, 661.1 kPa | 240.94 ± 0.071
300 K, 740.35 kPa | 238.22 ± 0.071
300 K, 826.4 kPa | 235.15 ± 0.07
300 K, 903.31 kPa | 232.29 ± 0.07
300 K, 960.98 kPa | 230.07 ± 0.07
310 K, 142.07 kPa | 261.05 ± 0.073
310 K, 235.24 kPa | 258.61 ± 0.073
310 K, 325.91 kPa | 256.18 ± 0.073
310 K, 424.89 kPa | 253.46 ± 0.072
310 K, 520.89 kPa | 250.75 ± 0.072
310 K, 623.06 kPa | 247.76 ± 0.072
310 K, 713.38 kPa | 245.04 ± 0.071
310 K, 810.73 kPa | 242.01 ± 0.071
310 K, 906.76 kPa | 238.9 ± 0.071
310 K, 952.69 kPa | 237.37 ± 0.071
320 K, 142.67 kPa | 265.1 ± 0.074
320 K, 210.07 kPa | 263.49 ± 0.073
320 K, 279.66 kPa | 261.81 ± 0.073
320 K, 349.85 kPa | 260.08 ± 0.073
320 K, 425.07 kPa | 258.19 ± 0.073
320 K, 509.07 kPa | 256.04 ± 0.072
320 K, 596.12 kPa | 253.77 ± 0.072
320 K, 677.09 kPa | 251.6 ± 0.072
320 K, 756.59 kPa | 249.42 ± 0.072
320 K, 834.83 kPa | 247.22 ± 0.071
320 K, 905.02 kPa | 245.21 ± 0.071
320 K, 976.94 kPa | 243.09 ± 0.071
330 K, 151.93 kPa | 268.88 ± 0.074
330 K, 227.66 kPa | 267.22 ± 0.074
330 K, 302.35 kPa | 265.55 ± 0.074
330 K, 380.89 kPa | 263.77 ± 0.073
330 K, 455.62 kPa | 262.04 ± 0.073
330 K, 550.82 kPa | 259.81 ± 0.073
330 K, 642.65 kPa | 257.6 ± 0.073
330 K, 732.74 kPa | 255.39 ± 0.072
330 K, 821.61 kPa | 253.16 ± 0.072
330 K, 912.04 kPa | 250.84 ± 0.072
330 K, 1001.4 kPa | 248.5 ± 0.072
